Laboratory results from patent US10808275B2, “Use of at least one chromogenic and/or fluorogenic phosphatase substrate for the detection and/or enumeration of enterobacteria in a sample” (BIOMERIEUX, priority 2013, dated 2020).

Experiments:
enterobacteria = assay: Specificity of phosphatase substrates: growth and coloration of enterobacteria strains on chromogenic agar media; format: cell-based; conditions: for coloration: % of enterobacteria strains coloured; for coloration >= 1: % of enterobacteria strains positive (intensity >= 1 on 0-4 reading scale); for growth: enterobacteria strains grown / 31 tested
Method: (§1) 38 bacterial strains, among which 31 enterobacteria and 7 non-enterobacteria, were tested on media containing various phosphatase substrates. Readings of the dishes were then taken at 24 h.
(§2) Then phosphatase substrates are added as follows: • Medium 1: addition of X-phosphate (X-P) at 60 mg/l • Medium 2: addition of Rose-phosphate (Rose-P) at 300 mg/L • Medium 3: addition of Magenta-phosphate (Magenta-P) at 300 mg/L • Medium 4: addition of Purple-phosphate (Purple-P) at 200 mg/L
(§3) The media are divided into Petri dishes.
(§4) Inoculation is performed from 24 h pre-cultures at 30° C. or 37° C., depending on the species, on Trypticase-soy medium.
(§5) Suspension in 0.5 McF physiological water is performed, and then the strains are inoculated with a 10 μl calibrated oese.
(§6) Readings are taken after 24 h and 48 h of incubation at 37° C.
(§7) Colonies with coloration intensities greater than or equal to 1 were considered positive, applying the reading scale below.
(§8) Reading scale of enzymatic activity/coloration • 0=no activity • 0.5=very pale coloration • 1=low-intensity distinct coloration • 2=medium-intensity obvious coloration • 3=intense coloration present, • 4=highly intense coloration present.

[1] = system: non-fermenting Gram-negative; assay: Specificity of phosphatase substrates: growth and coloration of non-enterobacteria strains on chromogenic agar media; format: cell-based, non-fermenting Gram-negative bacteria; conditions: for coloration >= 1: % positive non-fermenting Gram-negative strains; for growth: non-fermenting Gram-negative strains grown / 7 tested
Method: as §1, §2, §3, §4, §5, §6, §7, §8

| Compound | sensitivity of the substrate compared with the other substrates (enterobacteria; 24 h) | sensitivity of the substrate compared with the other substrates (enterobacteria; 48 h) | coloration (enterobacteria; 48 h at 37° C.) [%] | coloration >= 1 (enterobacteria; 24 h at 37° C.) [%] | growth (enterobacteria; 24 h at 37° C.) | growth (enterobacteria; 48 h at 37° C.) | coloration >= 1 ([1]; 24 h at 37° C.) [%] | coloration >= 1 ([1]; 48 h at 37° C.) [%] | growth ([1]; 24 h at 37° C.) | growth ([1]; 48 h at 37° C.) |
| --- | --- | --- | --- | --- | --- | --- | --- | --- | --- | --- |
| 5-bromo-6-chloro-3-indoxyl-phosphate [Magenta-P] | most sensitive | largely identical | 100 | 90 | 30/31 | 31/31 | 0 | 0 | 5/7 | 7/7 |
| O=P(O)(O)Oc1c[nH]c2cc(Cl)ccc12 [Rose-P, 6-chloro-3-indoxyl-phosphate] | least sensitive | least sensitive | 94 | 77 | 30/31 | 31/31 | 0 | 0 | 5/7 | 7/7 |
| O=P(O)(O)Oc1c[nH]c2ccc(Br)c(Cl)c12 [X-P, 5-bromo-4-chloro-3-indoxyl-phosphate] | most sensitive | largely identical | 97 | 90 | 30/31 | 31/31 | 0 | 0 | 7/7 | 7/7 |
